Activity calls are given as the source filed them. No cut-off for these calls is given here.
Columns and labels:
Mus musculus [1] = assay: Improvement in learning and spatial memory in mouse harboring APP/PSI/Tau assessed as improvement in trajectory at […], po for 30 consecutive days and studied for 5 days by Morris water maze test relative to control; type: functional, organism-based; settings: time 5.0 day
[2] = target: T1, Glycogen synthase kinase-3 beta (Homo sapiens, UniProt P49841); assay: biochemical; type: cell-based, Sf9
Target sequence in this assay (P49841 whole entry): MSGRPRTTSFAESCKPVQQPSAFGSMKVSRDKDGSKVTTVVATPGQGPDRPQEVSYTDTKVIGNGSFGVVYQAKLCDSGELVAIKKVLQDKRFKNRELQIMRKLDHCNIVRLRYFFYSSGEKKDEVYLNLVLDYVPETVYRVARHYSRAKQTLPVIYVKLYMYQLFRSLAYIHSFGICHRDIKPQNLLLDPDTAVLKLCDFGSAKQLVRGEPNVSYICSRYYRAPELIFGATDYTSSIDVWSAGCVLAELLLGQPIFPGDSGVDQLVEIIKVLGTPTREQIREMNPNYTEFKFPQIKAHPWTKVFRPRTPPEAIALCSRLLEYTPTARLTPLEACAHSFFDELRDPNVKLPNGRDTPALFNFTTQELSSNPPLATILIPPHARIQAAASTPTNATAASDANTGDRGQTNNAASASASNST

[3] = Permeability of compound by PAMPA-BBB assay
[4] = target: T1, Glycogen synthase kinase-3 beta; assay: Inhibition of human full length GSK3beta expressed in baculovirus in Sf9 insect cells assessed as enzyme activity using YRRAAVPPSPSLSRHSSPHQ(pS)EDEEE as substrate at 0.14 uM by ADP-Glo kinase assay relative to control; design: scale not given: the % may be the effect or the level left
Target sequence in this assay (P49841 whole entry, looked up): as the sequence (P49841 whole entry) above

[5] = target: Dual specificity tyrosine-phosphorylation-regulated kinase 1A (Homo sapiens) (UniProt Q13627); assay: Inhibition of DYRK1A in human SH-SY5Y cells assessed as decrease in OKA-induce DYRK1A-Tyr321/27 hyperphosphorylation at 250 to 1000 nM by Western blot analysis; type: cell-based; settings: dose 250-1000 nM
Mus musculus [6] = assay: Cognitive enhancing effect in mouse harboring APP/PSI/Tau assessed as improvement in time spent in the platform quadrant at 10 to 30 mg/kg, po for 30 consecutive days and studied for 5 days by Morris water maze test relative to control; type: functional, organism-based; settings: dose 10-30 mg/kg, time 30.0 day
[7] = target: T1, Glycogen synthase kinase-3 beta; assay: Inhibition of human full length GSK3beta expressed in baculovirus in Sf9 insect cells assessed as enzyme activity using YRRAAVPPSPSLSRHSSPHQ(pS)EDEEE as substrate at 0.7 uM by ADP-Glo kinase assay relative to control; design: scale not given: the % may be the effect or the level left
Target sequence in this assay (P49841 whole entry, looked up): as the sequence (P49841 whole entry) above

[8] = target: T1, Glycogen synthase kinase-3 beta; assay: Inhibition of GSK3beta in human SH-SY5Y cells assessed as decrease in OKA-induce tau-S396 hyperphosphorylation at 250 to 1000 nM by Western blot analysis; type: cell-based; settings: dose 250-1000 nM
Target sequence in this assay (P49841 whole entry, looked up): as the sequence (P49841 whole entry) above

L02 = assay: Cytotoxicity against human HL7702 cells assessed as cell viability measured at 5 to 20 uM for 24 to 72 hrs by MTT assay; type: cell-based; settings: l02, 20 µM, dose lower 5 µM, time lower 24 hrs, dose upper 20 µM, time upper 72 hrs
[9] = target: T1, Glycogen synthase kinase-3 beta; assay: Inhibition of GSK3beta in human SH-SY5Y cells assessed as increase in OKA-induce GSK3beta at serine 9 hyperphosphorylation by Western blot analysis; type: cell-based
Target sequence in this assay (P49841 whole entry, looked up): as the sequence (P49841 whole entry) above

Mus musculus [10] = assay: Improvement in learning and spatial memory in mouse harboring APP/PSI/Tau assessed as decrease in escape latency at 10 to 30 mg/kg, po for 30 consecutive days and studied for 5 days by Morris water maze test relative to control; type: functional, organism-based; settings: dose 10-30 mg/kg, time 30.0 day
[11] = Neurotoxicity against human SH-SY5Y cells assessed as cell viability at 15 to 20 uM measured for 36 to 72 hrs by MTT assay; type: cell-based; settings: dose lower 15 µM, time lower 36 hrs, dose upper 20 µM, time upper 72 hrs
[12] = Neurotoxicity against human SH-SY5Y cells assessed as cell viability at 10 uM measured for 24 to 72 hrs by MTT assay; type: cell-based; settings: time 24-72 hrs
SH-SY5Y = assay: Reduction in neurofibrillary tangles formation in OKA-treated human SH-SY5Y cells at 250 to 1000 nM by Western blot analysis; type: functional, cell-based; settings: dose 250-1000 nM
[13] = target: T1, Glycogen synthase kinase-3 beta; assay: Inhibition of GSK3beta phosphorylation expression in human SH-SY5Y cells at 250 to 1000 nM by Western blot analysis; type: cell-based; settings: dose 250-1000 nM
Target sequence in this assay (P49841 whole entry, looked up): as the sequence (P49841 whole entry) above

Mus musculus [14] = assay: Cognitive enhancing effect in mouse harboring APP/PSI/Tau assessed as improvement in number of crossing the virtual platform at 10 to 30 mg/kg, po for 30 consecutive days and studied for 5 days by Morris water maze test relative to control; type: functional, organism-based; settings: dose 10-30 mg/kg, time 30.0 day
Mus musculus [15] = assay: Improvement in learning and spatial memory in mouse harboring APP/PSI/Tau assessed as improvement in trajectory at 20 mg/kg, po for 30 consecutive days and studied for 5 days by Morris water maze test relative to control; type: functional, organism-based; settings: time 30.0 day
[16] = target: Dual specificity tyrosine-phosphorylation-regulated kinase 1A (Rattus norvegicus, UniProt Q63470); assay: Inhibition of rat recombinant DYRK1A expressed in Escherichia coli using RRRFRPASPLRGPPK as substrate by ADP-Glo kinase assay

| SMILES | IC50 [2] [µM] | Papp [3] [×10⁻⁶ cm/s] | also measured |
| --- | --- | --- | --- |
| [Cl-].[Li+] | – | – | Activity (Mus musculus [1]): Active |
| O=C(Nc1cc2c(cn1)[nH]c1cc(-c3cccnc3)ccc12)C1CC1 | > 10 | – | – |
| O=C(Nc1nccc2c1[nH]c1cc(F)ccc12)C1CC1 | 4.8 | 33.3 | – |
| O=C(Nc1nccc2c1[nH]c1cc(Cl)ccc12)C1CC1 | 5.15 | 21.5 | – |
| COc1ccc(-c2ccc3c(c2)[nH]c2c(NC(=O)C4CC4)nccc23)cc1 | > 10 | – | – |
| O=C(Nc1nccc2c1[nH]c1cc(OC(F)(F)F)ccc12)C1CC1 | 7.62 | – | – |
| COC(=O)c1ccc2c(c1)[nH]c1c(NC(=O)C3CC3)nccc12 | 0.071 | 16.5 | Activity [4]: 10%; Activity [5]: Active; Activity (Mus musculus [6]): Active; Activity [7]: 1%; Activity [8]: Active; Activity (L02): Toxic; Activity [9]: Dose-Dependent Effect; Activity (Mus musculus [10]): Active; Activity [11]: Non-Toxic; Activity [12]: Non-Toxic; Activity (SH-SY5Y): Active; Activity [13]: Active; Activity (Mus musculus [14]): Active |
| O=C(Nc1nccc2c1[nH]c1cc(C(F)(F)F)ccc12)C1CC1 | > 10 | – | – |
| O=C(Nc1cc2c(cn1)[nH]c1cc(OC(F)(F)F)ccc12)C1CC1 | > 10 | – | – |
| Cn1c(=O)c2c(ncn2C)n(C)c1=O [CAFFEINE] | – | 3.2 | – |
| O=C(Nc1cc2c(cn1)[nH]c1cc(F)ccc12)C1CC1 | > 10 | – | – |
| COC(=O)c1ccc2c(c1)[nH]c1cnc(NC(=O)C3CC3)cc12 | > 10 | – | – |
| O=C(Nc1nccc2c1[nH]c1cc(-c3ccccc3)ccc12)C1CC1 | 6.59 | – | – |
| O=Cc1ccc2c(c1)[nH]c1c(NC(=O)C3CC3)nccc12 | 0.4 | 14.3 | – |
| N#Cc1ccc2c(c1)[nH]c1c(NC(=O)C3CC3)nccc12 | > 10 | – | – |
| O=C(Nc1cc2c(cn1)[nH]c1cc(Cl)ccc12)C1CC1 | > 10 | – | – |
| O=C(Nc1cc2c(cn1)[nH]c1cc(C(F)(F)F)ccc12)C1CC1 | > 10 | – | – |
| COc1ccc2c(c1)[nH]c1c(C)nccc12 [HARMINE] | – | 44.6 | Activity (Mus musculus [15]): Active |
| NC(=O)c1ccc2c(c1)[nH]c1cnc(NC(=O)C3CC3)cc12 | > 10 | – | – |
| O=Cc1ccc2c(c1)[nH]c1cnc(NC(=O)C3CC3)cc12 | > 10 | – | – |
| COc1ccc(-c2ccc3c(c2)[nH]c2cnc(NC(=O)C4CC4)cc23)cc1 | > 10 | – | – |
| O=C(Nc1nccc2c1[nH]c1cc(-c3cccnc3)ccc12)C1CC1 | > 10 | – | – |
| COc1ccc2c(c1)[nH]c1cnc(C)cc12 | > 10 | – | – |
| N#Cc1ccc2c(c1)[nH]c1cnc(NC(=O)C3CC3)cc12 | > 10 | – | – |
| Clc1cccc(Cl)c1N=C1NCCN1 [CLONIDINE] | – | 4 | – |
| COc1ccc2c(c1)[nH]c1cnc(NC(=O)C3CC3)cc12 | 8.1 | – | – |
| NC(=O)c1ccc2c(c1)[nH]c1c(NC(=O)C3CC3)nccc12 | 0.2 | 0.7 | – |
| CN[C@@H]1C[C@H]2O[C@@](C)([C@@H]1OC)n1c3ccccc3c3c4c(c5c6ccccc6n2c5c31)C(=O)NC4 [STAUROSPORINE] | – | – | IC50 [16]: 0.012 µM |
| COc1ccc2c(c1)[nH]c1c(NC(=O)C3CC3)nccc12 | 0.144 | 15.6 | – |

Source: ChEMBL document CHEMBL4823268 (Eur J Med Chem, 2021)
